Converted amounts (≈) assume the structure as drawn. Where two headings read alike, the source gives them in different places.
Assays:
E. coli CIP 76.24 = assay: MIC, broth microdilution; type: cell-based; conditions: Escherichia coli, CIP76; broth microdilution, 37° C., 20 h; read-out: MIC E. coli CIP 76.24
Protocol: (§1) The compounds of the present invention are useful antibacterial agents having a selective spectrum of activity in vitro against standard bacterial strains which are used to screen for activity against pathogenic bacteria. […] The activity is presented as Minimum Inhibitory Concentration (MIC) expressed in μg/ml.
(§2) Whole-cell antimicrobial activity was determined by broth microdilution method in microtiterplates. The compound was tested in serial 4-fold dilutions ranging from 0.06 to 64 mcg/mL. Test organisms were selected from the following laboratory strains: Staphylococcus aureus CIP 76.25, Staphylococcus aureus BAA39 MDR, Staphylococcus aureus NEM 14157 PeniR, Staphylococcus aureus CIP 54.146, Escherichia coli CIP 76.24. Bacteria were tested in Tryptic Soy (TS) or Mueller Hinton (MH) broth using an inoculum of 10^4 to 10^6 UFC/mL incubated at 37° C. for 20 h.
(§3) The minimum inhibitory concentration (MIC) was determined as the lowest concentration of compound at which no visible bacteria growth is observed (90% inhibition of absorbance of at […].)

S. aureus CIP 76.25 = assay: MIC, broth microdilution; type: cell-based; conditions: Staphylococcus aureus, CIP76; broth microdilution, 37° C., 20 h; read-out: MIC S. aureus CIP 76.25
Protocol: as §1, §2, §3

S. aureus 1651 LRSA* = assay: MIC against resistant strains of S. aureus; type: cell-based; conditions: Staphylococcus aureus, read-out: MIC S. aureus 1651 LRSA*
Protocol: as §2, §3
(§4) In Vitro Activities Against Resistant Stains of S. aureus

S. aureus 1652 LRSA = assay: MIC against resistant strains of S. aureus; type: cell-based; conditions: Staphylococcus aureus, read-out: MIC S. aureus 1652 LRSA
Protocol: as §2, §3, §4

S. aureus 2012 VISA = assay: MIC against resistant strains of S. aureus; type: cell-based; conditions: Staphylococcus aureus, read-out: MIC S. aureus 2012 VISA
Protocol: as §2, §3, §4

S. aureus 2018 VISA* = assay: MIC against resistant strains of S. aureus; type: cell-based; conditions: Staphylococcus aureus, read-out: MIC S. aureus 2018 VISA*
Protocol: as §2, §3, §4

S. aureus MRSA* = assay: MIC against resistant strains of S. aureus; type: cell-based; conditions: Staphylococcus aureus, read-out: MIC S. aureus MRSA*
Protocol: as §2, §3, §4

S. aureus USA300 MRSA* = assay: MIC against resistant strains of S. aureus; type: cell-based; conditions: Staphylococcus aureus, read-out: MIC S. aureus USA300 MRSA*
[1] = target: T1, recombinant E. coli FabI enzyme (Escherichia coli, UniProt P0AEK4); assay: FabI inhibition, fluorescence-based NADH assay; type: biochemical
T1 construct: 6-His (C); made in house; host or cells: prokaryotic expression vector
T1 sequence (P0AEK4 whole entry): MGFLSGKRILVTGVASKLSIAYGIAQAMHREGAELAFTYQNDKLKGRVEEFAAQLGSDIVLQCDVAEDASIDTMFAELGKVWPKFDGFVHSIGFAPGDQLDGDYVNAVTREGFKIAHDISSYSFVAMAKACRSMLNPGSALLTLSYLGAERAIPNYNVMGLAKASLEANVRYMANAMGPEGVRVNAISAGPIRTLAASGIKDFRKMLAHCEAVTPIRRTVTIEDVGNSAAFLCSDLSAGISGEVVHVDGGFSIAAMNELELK
Protocol: Compound inhibitory activity of FabI enzyme is measured in vitro by the IC50 determination using a fluorescent based assay.
The protein FabI from E. coli is prepared and purified using standard methods for recombinant protein expression after cloning of the gene in a prokaryotic expression vector.
The biochemical activity of the FabI enzyme is assessed using the following method.
The assay buffer “AB” contains 50 mM Hepes pH7.5, 100 μM Dithiothreitol, 0.006% Triton-X100. The following components are added in a black polystyrene Costar plate up to a final volume of 55 μL: 1.5 μL DMSO, or inhibitor dissolved in DMSO and 53.5 μL of a FabI/NADH/NAD+ mixture in AB. After 60 min of pre-incubation at room temperature, the reaction is started by addition of 5 μL of Crotonoyl-CoA to a final volume of 60 μL. This reaction mixture is then composed of 40 nM FabI (produced in house from E. coli, C-terminal 6-His tagged), 20 μM NADH (Biochemika), 10 μM NAD+ (Biochemika), 50 μM Crotonoyl-CoA (Biochemika) and compound at defined concentration. Fluorescence intensity of NADH (lex=360 nm, lem=520 nm) is measured immediately after Crotonoyl-CoA addition, and 2 hours later by a Fluostar Optima (BMG). Enzyme activity is proportional to the signal decrease from which inhibition percentages are derived. For IC50 determinations, the inhibitor is tested at 6 to 10 different concentrations, and the related inhibitions are fitted to a classical langmuir equilibrium model using XLFIT (IDBS).
In Vitro Inhibition of Recombinant E. coli FabI Enzyme by Selected Compounds of Formula (I).

S. aureus BAA39MDR = assay: MIC, broth microdilution; type: cell-based; conditions: Staphylococcus aureus, broth microdilution, 37° C., 20 h, read-out: MIC S. aureus BAA39MDR
Protocol: as §1, §2, §3

S. aureus NEM14157 = assay: MIC, broth microdilution; type: cell-based; conditions: Staphylococcus aureus, NEM14157; broth microdilution, 37° C., 20 h; read-out: MIC S. aureus NEM14157
Protocol: as §1, §2, §3

[2] = Methicillin Resistant S. aureus

Compound | MIC (E. coli CIP 76.24) [µg/mL] | MIC (S. aureus CIP 76.25) [µg/mL] | MIC (S. aureus 1651 LRSA*; Linezolid resistant S. aureus) [µg/mL] | MIC (S. aureus 1652 LRSA; Linezolid resistant S. aureus) [µg/mL] | MIC (S. aureus 2012 VISA; VISA strain) [µg/mL] | MIC (S. aureus 2018 VISA*; VISA strain) [µg/mL] | MIC (S. aureus MRSA*; [2]) [µg/mL] | MIC (S. aureus USA300 MRSA*; [2]) [µg/mL] | IC50 [1] [nM] | MIC (S. aureus BAA39MDR) [µg/mL] | MIC (S. aureus NEM14157) [µg/mL] | IC50 ([1]; recombinant E. coli FabI 40 nM, 60 min pre-incubation, NADH fluorescence, read-out: IC50) [nM] | MIC (S. aureus 1651 LRSA*) [µg/mL] | MIC (S. aureus 1652 LRSA) [µg/mL] | MIC (S. aureus 2012 VISA; VISA) [µg/mL] | MIC (S. aureus 2018 VISA*; VISA) [µg/mL] | MIC (S. aureus MRSA*) [µg/mL] | MIC (S. aureus USA300 MRSA*) [µg/mL]
CCc1ccc(Oc2ccc(NCCCO)cc2F)c(O)c1 [Example 48, 5-Ethyl-2-[2-fluoro-4-(3-hydroxy-propylamino)-phenoxy]-phenol] | 4 (≈ 13.1 µM) | 0.062 (≈ 0.203 µM) | 0.12 (≈ 0.393 µM) | 0.5 (≈ 1.64 µM) | 0.12 (≈ 0.393 µM) | 0.25 (≈ 0.819 µM) | 0.06 (≈ 0.196 µM) | 0.5 (≈ 1.64 µM) | – | – | – | – | – | – | – | – | – | –
CCc1cc(O)c(Oc2cccnc2N)cc1F [Example 84, 2-(2-aminopyridin-3yloxy)-5-ethyl-4-fluorophenol] | 0.25 (≈ 1.01 µM) | 0.25 (≈ 1.01 µM) | – | – | – | – | – | – | 100 | 0.25 (≈ 1.01 µM) | 0.25 (≈ 1.01 µM) | – | – | – | – | – | – | –
Oc1cc(CC(F)(F)F)ccc1Oc1cccc(F)n1 [Example 27, 2-[(6-fluoropyridin-2-yl)oxy]-5-(2,2,2-trifluoroethyl)phenol] | 4 (≈ 13.9 µM) | 0.25 (≈ 0.87 µM) | – | – | – | – | – | – | – | 0.25 (≈ 0.87 µM) | 0.25 (≈ 0.87 µM) | 470 | – | – | – | – | – | –
CCCNS(=O)(=O)c1ccc(Oc2ccc(CC)cc2O)c(F)c1 [Example 71, 4-(4-ethyl-2-hydroxyphenoxy)-3-fluoro-N-propyl benzenesulfonamide] | 4 (≈ 11.3 µM) | < 0.062 | – | – | – | – | – | – | 330 | 0.25 (≈ 0.707 µM) | 0.062 (≈ 0.175 µM) | – | – | – | – | – | – | –
CN[C@H](CC(C)C)C(=O)N[C@H]1C(=O)N[C@@H](CC(N)=O)C(=O)N[C@H]2C(=O)N[C@H]3C(=O)N[C@H](C(=O)N[C@H](C(=O)O)c4cc(O)cc(O)c4-c4cc3ccc4O)[C@H](O)c3ccc(c(Cl)c3)Oc3cc2cc(c3O[C@@H]2O[C@H](CO)[C@@H](O)[C@H](O)[C@H]2O[C@H]2C[C@](C)(N)[C@H](O)[C@H](C)O2)Oc2ccc(cc2Cl)[C@H]1O [Vancomycin, reference compound] | – | – | – | – | – | – | – | – | – | – | – | – | 1 (≈ 0.69 µM) | 1 (≈ 0.69 µM) | 8 (≈ 5.52 µM) | 4 (≈ 2.76 µM) | 1 (≈ 0.69 µM) | 0.5 (≈ 0.345 µM)
CCc1ccc(Oc2cccnc2N)c(O)c1 [Example 21, 2-[(2-aminopyridin-3-yl)oxy]-5-ethylphenol] | 0.25 (≈ 1.09 µM) | 0.25 (≈ 1.09 µM) | 0.12 (≈ 0.521 µM) | 0.5 (≈ 2.17 µM) | 0.12 (≈ 0.521 µM) | 0.25 (≈ 1.09 µM) | 0.12 (≈ 0.521 µM) | 0.5 (≈ 2.17 µM) | 69 | 0.25 (≈ 1.09 µM) | 0.25 (≈ 1.09 µM) | – | – | – | – | – | – | –
CCc1ccc(Oc2ccc(C(C)=O)cc2F)c(O)c1 [Example 29, 1-[4-(4-ethyl-2-hydroxyphenoxy)-3-fluorophenyl]ethanone] | 1 (≈ 3.65 µM) | 0.062 (≈ 0.226 µM) | – | – | – | – | – | – | 150 | 0.062 (≈ 0.226 µM) | 0.062 (≈ 0.226 µM) | – | – | – | – | – | – | –

Source: patent US9309179B2 (FAB PHARMA S.A.S., priority 2006, dated 2016)
